Assay results taken from US20230381328A1, “COMPOUND FOR THE PREVENTION OR TREATMENT OF MYASTHENIA GRAVIS” (ABLEVIA BIOTECH GMBH, priority 2020, published 2023).

B1: NPADYPG, linear mimotope (peptide)
peptide: NPADYPG
B2: NPDDYHG, linear mimotope (peptide)
peptide: NPDDYHG
B3: LRRNPAD, linear mimotope (peptide)
peptide: LRRNPAD
B4: …, linear mimotope (peptide)
peptide: LRRNPADYG
B5: NPADYGV, linear mimotope (peptide)
peptide: NPADYGV
B6: GSLRFNP, linear mimotope (peptide)
peptide: GSLRFNP
B7: VRLRFNP, linear mimotope (peptide)
peptide: VRLRFNP
B8: NPADYRG, linear mimotope (peptide)
peptide: NPADYRG
B9: LRLNPAD, linear mimotope (peptide)
peptide: LRLNPAD
B10: …, linear mimotope (peptide)
peptide: QWIDVRLRFNP
B11: NPADYGH, linear mimotope (peptide)
peptide: NPADYGH
B12: …, linear mimotope (peptide)
peptide: RLHWNPADY
B13: WNPADYP, linear mimotope (peptide)
peptide: WNPADYP
B14: VRLRYNP, linear mimotope (peptide)
peptide: VRLRYNP
B15: NPADYGY, linear mimotope (peptide)
peptide: NPADYGY
B16: RFNPADY, linear mimotope (peptide)
peptide: RFNPADY
B17: …, linear mimotope (peptide)
peptide: VRLRRNPAD

What follows are molecules tested on myasthenogenic antibody mAB 198 (assay: Peptide microarray mimotope screen, binding of mAB 198 to linear and cyclic peptides (fluorescence readout)). Settings: cyclic mimotopes; binding of mAB 198, relative fluorescent signal after normalization against background.
Set-up: species or system rat
From the text: A custom peptide array of 30000 peptides was synthesized, with peptides of 7-19 amino acids in size; the peptides were based on substitution analyses of 176 AChR-MIR peptides with exchanges of each amino acid positions by each of the 20 common amino acids. Peptides were synthesized directly on a microarray, and screened with monoclonal antibody mAB 198 in order to obtain mimotopes with a binding strength which was improved over the human AChR alpha chain MIR-containing sequence […] (Tzartos et al, 1991; Luo et al, 2009) and over a previously published mimotope sequence ([…]), that was derived from Torpedo AchR with the help of antibody mAB 132A (Trinh et al, 2014). In particular, the wild type AChR-MIR sequence is known to structurally mimic to a certain extent the epitope recognized by myasthenogenic, unwanted and disease-causing antibodies from patients. The mimotope peptide library was designed by permutation of each single amino acid position of these two sequences with all natural amino acids in order to provide a maximally diversified collection of peptide variants. All peptides were synthesized in doublets as linear and as cyclic peptides. The aim was to obtain peptides (mimotopes) that mimic the natural epitope of myasthenogenic antibodies.
For the mimotope screen, the antibody mAB 198 (Absolute Antibody Ltd, UK) was used. This is a prototype antibody that was generated in rats using human AChR (Tzartos et al, 1983; Asher et al, 1993). […] Therefore, mAB198 was used as a surrogate probe to screen for new mimotopes that are capable of mimicking the corresponding AChR-MIR epitope or portions of the epitope.
As a readout, binding of mAB 198 to the 30000 linear and cyclic peptides was measured by fluorescence readout, and peptides were ranked according to their relative fluorescent signal after normalization against the background.
The top-ranked 100 linear and cyclic mimotopes are listed in Table 1 and Table 2 above, respectively.

Row | relative signal [%] | Molecule
1 | 42.3% | 105 (RLNPADY) [compound 105]
2 | 13.7% | 146 (GNPADYGGI) [compound 146]
3 | 22.8% | 127 (LRINPADYG) [compound 127]
4 | 9.9% | 181 (VRLRGNPAD) [compound 181]
5 | 10.4% | 170 (GSLRFNPADYG) [compound 170]
6 | 11.9% | 158 (RPNPADYGG) [compound 158]
7 | 8.6% | 199 (RLRTNPADY) [compound 199]
8 | 15.8% | 139 (NPADYGH) [compound 139]
9 | 8.7% | 197 (NPADYGN) [compound 197]
10 | 8.6% | 198 (LRFNPAD) [compound 198]
11 | 24.5% | 122 (RLRYNPADY) [compound 122]
12 | 31.4% | 109 (DVRLRINPADY) [compound 109]
13 | 21.8% | 130 (SLRLNPADY) [compound 130]
14 | 12.6% | 150 (NPADYGD) [compound 150]
15 | 37.3% | 107 (RLRLNPADY) [compound 107]
16 | 10.7% | 165 (QLRWNPADY) [compound 165]
17 | 21.3% | 132 (RLRFNPADY) [compound 132]
18 | 10.0% | 178 (VRLRINPADYG) [compound 178]
19 | 27.7% | 115 (DVRLRFNPADY) [compound 115]
20 | 25.0% | 120 (DVRLRGNPADY) [compound 120]
21 | 13.6% | 147 (SLRFNPADY) [compound 147]
22 | 15.6% | 140 (RPNPADY) [compound 140]
23 | 13.1% | 149 (LRWNPADYP) [compound 149]
24 | 23.1% | 126 (RINPADYGG) [compound 126]

Row | relative signal [%] | Molecule
25 | 28.9% | 111 (RINPADY) [compound 111]
26 | 45.1% | 103 (LRVNPADYG) [compound 103]
27 | 15.4% | 141 (SLRGNPADY) [compound 141]
28 | 8.7% | 196 (GSLRWNPADYT) [compound 196]
29 | 26.5% | 117 (SLRVNPADY) [compound 117]
30 | 9.7% | 184 (RLLWNPADY) [compound 184]
31 | 23.5% | 124 (RRNPADY) [compound 124]
32 | 8.9% | 193 (LRWNPADYPGI) [compound 193]
33 | 9.7% | 187 (VRLRLNPADYG) [compound 187]
34 | 21.3% | 131 (DVRLRPNPADY) [compound 131]
35 | 9.7% | 185 (RLRWNPADYGS) [compound 185]
36 | 10.5% | 169 (DVRLRYNPADY) [compound 169]
37 | 13.7% | 145 (RLYWNPADY) [compound 145]
38 | 11.5% | 160 (ALRWNPADY) [compound 160]
39 | 13.4% | 148 (VRLRVNPADYG) [compound 148]
40 | 23.4% | 125 (LRRNPADYG) [compound 125]
41 | 22.2% | 129 (RGNPADYGG) [compound 129]
42 | 11.8% | 159 (NPADYGY) [compound 159]
43 | 14.7% | 142 (VRLRRNPAD) [compound 142]
44 | 9.9% | 180 (TLRWNPADY) [compound 180]
45 | 19.6% | 135 (GGSLRGNPADY) [compound 135]
46 | 30.2% | 110 (DVRLRVNPADY) [compound 110]
47 | 20.2% | 134 (RYNPADY) [compound 134]

Same assay, conditions: linear mimotopes; binding of mAB 198, relative fluorescent signal after normalization against background

Row | relative signal [%] | Molecule
48 | 6.5% | 94 (RLRYNPADY) [compound 94]
49 | 6.7% | 89 (SLRVNPADY) [compound 89]
50 | 6.8% | 85 (VDCNLKFNP) [compound 85]
51 | 100.0% | 1 (LRRNPAD) [compound 1]
52 | 56.7% | 4 (VRLRWNPADYP) [compound 4]
53 | 14.1% | 33 (NPADYGD) [compound 33]
54 | 48.0% | 5 (LRGNPAD) [compound 5]
55 | 13.0% | 38 (RGNPADYGG) [compound 38]
56 | 7.2% | 80 (RTNPADY) [compound 80]
57 | 8.5% | 69 (DVRLRINPADY) [compound 69]
58 | 12.2% | 44 (RINPADY) [compound 44]
59 | 6.1% | 98 (VDCNLKYNP) [compound 98]
60 | 9.0% | 64 (WRLRWNPAD) [compound 64]
61 | 6.5% | 93 (LRWNPADYPGI) [compound 93]
62 | 15.3% | 30 (LRWNPADYH) [compound 30]
63 | 13.4% | 37 (QWIDVRLRYNP) [compound 37]
64 | 6.7% | 90 (CNLKYNP) [compound 90]
65 | 7.7% | 75 (NPDDYGH) [compound 75]
66 | 10.0% | 56 (DVRLRFNPADY) [compound 56]

Row | relative signal [%] | Molecule
67 | 12.2% | 43 (IDVRLRYNP) [compound 43]
68 | 6.8% | 87 (RIRWNPADY) [compound 87]
69 | 11.0% | 50 (RLYWNPADY) [compound 50]
70 | 6.9% | 84 (RGNPADY) [compound 84]
71 | 10.9% | 51 (QWVDYNLKFNP) [compound 51]
72 | 6.6% | 91 (HSLRWNPAD) [compound 91]
73 | 6.8% | 86 (DVRLRWNPSDY) [compound 86]
74 | 20.2% | 20 (RLHWNPADY) [compound 20]
75 | 19.8% | 22 (NPADYPG) [compound 22]
76 | 12.6% | 40 (LRINPADYG) [compound 40]
77 | 11.4% | 46 (RLRFNPADY) [compound 46]
78 | 8.1% | 71 (GGGSLRFNPAD) [compound 71]
79 | 6.5% | 92 (NPADYGN) [compound 92]
80 | 16.7% | 26 (LLGGGSLRFNP) [compound 26]
81 | 11.4% | 47 (WNPDDYR) [compound 47]
82 | 11.0% | 48 (CNLKFNP) [compound 48]
83 | 17.7% | 24 (RLNPADY) [compound 24]
84 | 71.4% | 2 (NPADYRG) [compound 2]
85 | 8.1% | 72 (VRHRWNPAD) [compound 72]

The molecules below were run against monoclonal antibody mAB 198 (assay: peptide microarray, fluorescence, linear peptide). Settings: not given.

Row | relative signal [%] | Molecule
86 | 19.8% | B1
87 | 21.3% | B2
88 | 100% | B3
89 | 28.3% | B4
90 | 6% | B5
91 | 21.6% | B6
92 | 27.1% | B7
93 | 71.4% | B8
94 | 25.2% | B9
95 | 20.1% | B10
96 | 18.1% | B11
97 | 20.2% | B12
98 | 20.5% | B13
99 | 26.3% | B14
100 | 21.2% | B15
101 | 21.8% | B16
102 | 25% | B17
